Source: patent US8802673B2, “Heterocyclic amine derivatives” (Hoffmann-La Roche Inc, priority 2011, dated 2014)

target: mouse TAAR1 (Mus musculus (Mouse), UniProt Q923Y8); assay: Radioligand binding assay on mouse TAAR1; details: mouse TAAR1 (first value of the cell), HEK-293 membranes; read-out: Ki (μM) mouse/rat
How it was run: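 Membranes from HEK293 cells stably expressing mouse TAAR1, Kd of radioligand determined per batch by saturation. Compounds tested 10 pM to 10 μM in duplicate, incubated 1 h at 4 °C, then filtration over PEI-soaked GF/C filters and scintillation counting.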

Chain of mouse TAAR1 (Q923Y8 whole entry): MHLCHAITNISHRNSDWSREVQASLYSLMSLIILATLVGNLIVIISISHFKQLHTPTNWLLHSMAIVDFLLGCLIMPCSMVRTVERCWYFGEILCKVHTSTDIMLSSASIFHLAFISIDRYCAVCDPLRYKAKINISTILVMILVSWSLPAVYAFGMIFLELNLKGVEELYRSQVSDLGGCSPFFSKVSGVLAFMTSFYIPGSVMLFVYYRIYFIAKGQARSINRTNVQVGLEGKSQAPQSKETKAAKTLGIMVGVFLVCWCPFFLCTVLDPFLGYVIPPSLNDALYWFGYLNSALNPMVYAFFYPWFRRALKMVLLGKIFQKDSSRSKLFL

Row | SMILES | Ki
1 | CCOc1cnc(Nc2ccc([C@@H]3CCCNC3)cc2)nc1 [Example 114, (5-Ethoxy-pyrimidin-2-yl)-((S)-4-piperidin-3-yl-phenyl)-amine] | 0.0212 µM
2 | Fc1cc(Nc2ncc(OCC(F)(F)F)cn2)ccc1[C@@H]1CNCCO1 [Example 207, (R)—N-(3-Fluoro-4-(morpholin-2-yl)phenyl)-5-(2,2,2-trifluoroethoxy)pyrimidin-2-amine] | 0.0043 µM
3 | Clc1cc(Nc2ncc(C3CC3)cn2)ccc1[C@@H]1CNCCO1 [Example 194, ((R)-3-Chloro-4-morpholin-2-yl-phenyl)-(5-cyclopropyl-pyrimidin-2-yl)-amine] | 0.0021 µM
4 | Cc1cnc(Nc2ccc([C@@H]3CNCCO3)cc2)cn1 [Example 157, (5-Methyl-pyrazin-2-yl)-((R)-4-morpholin-2-yl-phenyl)-amine] | 0.0132 µM
5 | Fc1cc(Nc2nccc(OCC(F)(F)F)n2)ccc1[C@@H]1CNCCO1 [Example 208, (R)—N-(3-Fluoro-4-(morpholin-2-yl)phenyl)-4-(2,2,2-trifluoroethoxy)pyrimidin-2-amine] | 0.003 µM
6 | COc1ccc(-c2cnc(Nc3ccc([C@@H]4CNCCO4)cc3)nc2)cc1OC [Example 142] | 0.0027 µM
7 | COc1ccnc(Nc2ccc([C@H]3CNCCO3)cc2)c1 [Example 39, (S)-4-Methoxy-N-(4-(morpholin-2-yl)phenyl)pyridin-2-amine] | 0.004 µM
8 | COc1ccc(-c2cnc(Nc3ccc([C@H]4CNCCO4)cc3)nc2)cc1OC [Example 141] | 0.0027 µM
9 | Cc1cc([C@H]2CNCCO2)ccc1Nc1ncc(C(F)(F)F)cn1 [Example 167, ((S)-2-Methyl-4-morpholin-2-yl-phenyl)-(5-trifluoromethyl-pyrimidin-2-yl)-amine] | 0.112 µM
10 | CCOc1cnc(Nc2ccc([C@H]3CNCCO3)cc2F)nc1 [Example 133, (5-Ethoxy-pyrimidin-2-yl)-((S)-2-fluoro-4-morpholin-2-yl-phenyl)-amine] | 0.0052 µM
11 | FC(F)(F)c1cnc(Nc2ccc([C@@H]3CNCCO3)cc2)cn1 [Example 201, (R)—N-(4-(Morpholin-2-yl)phenyl)-5-(trffluoromethyl)pyrazin-2-amine] | 0.008 µM
12 | c1ccc(-n2ccc(Nc3ccc([C@@H]4CNCCO4)cc3)n2)cc1 [Example 164, ((R)-4-Morpholin-2-yl-phenyl)-(1-phenyl-1H-pyrazol-3-yl)-amine] | 0.0006 µM
13 | COCCOc1cnc(Nc2ccc([C@H]3CNCCO3)cc2F)nc1 [Example 152, ((S)-2-Fluoro-4-morpholin-2-yl-phenyl)-[5-(2-methoxy-ethoxy)-pyrimidin-2-yl]-amine] | 0.0196 µM
14 | CCc1cnc(Nc2ccc(C3CNCCO3)cc2C)nc1 (racemic) [Example 88, (RS)-5-Ethyl-N-(2-methyl-4-(morpholin-2-yl)phenyl)pyrimidin-2-amine] | 0.008 µM
15 | Cc1cc(C2CNCCO2)ccc1Nc1ncc(Br)cn1 (racemic) [Example 89, (RS)-5-Bromo-N-(2-methyl-4-(morpholin-2-yl)phenyl)pyrimidin-2-amine] | 0.0139 µM
16 | Fc1cc([C@H]2CNCCO2)ccc1Nc1ncc(C(F)(F)F)cn1 [Example 135, ((S)-2-Fluoro-4-morpholin-2-yl-phenyl)-(5-trifluoromethyl-pyrimidin-2-yl)-amine] | 0.0057 µM

Next, values leading:

Row | Ki | SMILES
17 | 0.0042 µM | CCOc1cnc(Nc2ccc([C@H]3CNCCO3)cc2)nc1 [Example 29, (5-Ethoxy-pyrimidin-2-yl)-((S)-4-morpholin-2-yl-phenyl)-amine]
18 | 0.0096 µM | Cc1nc(Nc2ccc([C@H]3CNCCO3)cc2)ncc1C(C)C [Example 73, (5-Isopropyl-4-methyl-pyrimidin-2-yl)-((S)-4-morpholin-2-yl-phenyl)-amine]
19 | 0.138 µM | Clc1ncc(Cl)c(Nc2ccc([C@H]3CNCCO3)cc2)n1 [Example 186, (S)-2,5-Dichloro-N-(4-(morpholin-2-yl)phenyl)pyrimidin-4-amine]
20 | 0.0514 µM | N#Cc1ccc(CNc2ccc([C@H]3CNCCO3)cc2)cc1 [Example 23, 4-[((S)-4-Morpholin-2-yl-phenylamino)-methyl]-benzonitrile]
21 | 0.0007 µM | c1ccc2cc(Nc3ccc([C@H]4CNCCO4)cc3)ccc2c1 [Example 44, ((S)-4-Morpholin-2-yl-phenyl)-naphthalen-2-yl-amine]
22 | 0.0041 µM | Clc1cnc(Nc2ccc([C@H]3CNCCO3)cc2)nc1 [Example 104, (S)-5-Chloro-N-(4-(morpholin-2-yl)phenyl)pyrimidin-2-amine]
23 | 0.0011 µM | Clc1ccc(Nc2ccc(C3CNCCO3)cc2)nc1 (racemic) [Example 5, (RS)-(5-Chloro-pyridin-2-yl)-(4-morpholin-2-yl-phenyl)-amine]
24 | 0.0266 µM | c1ccc(CCNc2ccc([C@H]3CNCCO3)cc2)cc1 [Example 13, ((S)-4-Morpholin-2-yl-phenyl)-phenethyl-amine]
25 | 0.0021 µM | FC(F)(F)COc1ccnc(Nc2ccc([C@H]3CNCCO3)cc2)n1 [Example 187, ((S)-4-Morpholin-2-yl-phenyl)-[4-(2,2,2-trifluoro-ethoxy)-pyrimidin-2-yl]-amine]
26 | 0.0144 µM | Cc1cc(C)nc(Nc2ccc([C@@H]3CNCCO3)cc2)n1 [Example 182, (4,6-Dimethyl-pyrimidin-2-yl)-((R)-4-morpholin-2-yl-phenyl)-amine]
27 | 0.0034 µM | CCc1cnc(Nc2ccc([C@H]3CNCCO3)cc2F)nc1 [Example 117, (5-Ethyl-pyrimidin-2-yl)-((S)-2-fluoro-4-morpholin-2-yl-phenyl)-amine]
28 | 0.0089 µM | FC(F)(F)c1nccc(Nc2ccc([C@@H]3CNCCO3)cc2)n1 [Example 200, (R)—N-(4-(morpholin-2-yl)phenyl)-2-(trifluoromethyl)pyrimidin-4-amine]
29 | 0.0119 µM | FC(F)(F)c1ccc(CNc2ccc([C@H]3CNCCO3)cc2)cc1 [Example 24, ((S)-4-Morpholin-2-yl-phenyl)-(4-trifluoromethyl-benzyl)-amine]
30 | 0.0363 µM | Clc1nc2ccccc2cc1CNc1ccc([C@H]2CNCCO2)cc1 [Example 51, (S)—N-((2-Chloroquinolin-3-yl)methyl)-4-(morpholin-2-yl)aniline]
31 | 0.0181 µM | Clc1ccc(CNc2ccc(C3CNCCO3)cc2)cc1 (racemic) [Example 9, (RS)-(4-Chloro-benzyl)-(4-morpholin-2-yl-phenyl)-amine]
32 | 0.11 µM | CS(=O)(=O)c1cnc(Nc2ccc([C@H]3CNCCO3)cc2)nc1 [Example 78, (5-Methanesulfonyl-pyrimidin-2-yl)-((S)-4-morpholin-2-yl-phenyl)-amine]
33 | 0.0372 µM | Cc1cc(Br)cnc1Nc1ccc([C@H]2CNCCO2)cc1 [Example 56, (S)-5-Bromo-3-methyl-N-(4-(morpholin-2-yl)phenyl)pyridin-2-amine]

target: rat TAAR1 (Rattus norvegicus (Rat), UniProt Q923Y9); assay: Radioligand binding assay on rat TAAR1; details: rat TAAR1 (second value of the cell), HEK-293 membranes; read-out: Ki (μM) mouse/rat
How it was run: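 Membranes from HEK293 cells stably expressing rat TAAR1 were used, with radioligand Kd determined by saturation for each batch. Compounds (10 pM to 10 μM, in duplicate) were incubated for 1 h at 4 °C. Bound radioactivity was collected by filtration onto PEI-soaked GF/C filters and counted by scintillation.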

Chain of rat TAAR1 (Q923Y9 whole entry): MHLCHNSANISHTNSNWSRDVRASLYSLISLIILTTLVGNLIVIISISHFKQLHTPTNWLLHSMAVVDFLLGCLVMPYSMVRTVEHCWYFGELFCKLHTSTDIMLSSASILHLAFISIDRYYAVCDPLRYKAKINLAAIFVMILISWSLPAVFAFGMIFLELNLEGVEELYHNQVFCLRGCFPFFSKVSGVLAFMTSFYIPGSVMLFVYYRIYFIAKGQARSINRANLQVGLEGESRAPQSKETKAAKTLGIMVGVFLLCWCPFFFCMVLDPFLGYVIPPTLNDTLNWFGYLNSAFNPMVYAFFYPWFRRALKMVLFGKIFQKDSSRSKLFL

Row | SMILES | Ki
34 | CCOc1cnc(Nc2ccc([C@@H]3CCCNC3)cc2)nc1 [Example 114, (5-Ethoxy-pyrimidin-2-yl)-((S)-4-piperidin-3-yl-phenyl)-amine] | 0.996 µM
35 | Fc1cc(Nc2ncc(OCC(F)(F)F)cn2)ccc1[C@@H]1CNCCO1 [Example 207, (R)—N-(3-Fluoro-4-(morpholin-2-yl)phenyl)-5-(2,2,2-trifluoroethoxy)pyrimidin-2-amine] | 0.0102 µM
36 | Clc1cc(Nc2ncc(C3CC3)cn2)ccc1[C@@H]1CNCCO1 [Example 194, ((R)-3-Chloro-4-morpholin-2-yl-phenyl)-(5-cyclopropyl-pyrimidin-2-yl)-amine] | 0.0011 µM
37 | Cc1cnc(Nc2ccc([C@@H]3CNCCO3)cc2)cn1 [Example 157, (5-Methyl-pyrazin-2-yl)-((R)-4-morpholin-2-yl-phenyl)-amine] | > 10 µM
38 | Fc1cc(Nc2nccc(OCC(F)(F)F)n2)ccc1[C@@H]1CNCCO1 [Example 208, (R)—N-(3-Fluoro-4-(morpholin-2-yl)phenyl)-4-(2,2,2-trifluoroethoxy)pyrimidin-2-amine] | 0.0035 µM
39 | COc1ccc(-c2cnc(Nc3ccc([C@@H]4CNCCO4)cc3)nc2)cc1OC [Example 142] | 0.0146 µM
40 | COc1ccnc(Nc2ccc([C@H]3CNCCO3)cc2)c1 [Example 39, (S)-4-Methoxy-N-(4-(morpholin-2-yl)phenyl)pyridin-2-amine] | 0.251 µM
41 | COc1ccc(-c2cnc(Nc3ccc([C@H]4CNCCO4)cc3)nc2)cc1OC [Example 141] | 0.0129 µM
42 | Cc1cc([C@H]2CNCCO2)ccc1Nc1ncc(C(F)(F)F)cn1 [Example 167, ((S)-2-Methyl-4-morpholin-2-yl-phenyl)-(5-trifluoromethyl-pyrimidin-2-yl)-amine] | 1.35 µM
43 | CCOc1cnc(Nc2ccc([C@H]3CNCCO3)cc2F)nc1 [Example 133, (5-Ethoxy-pyrimidin-2-yl)-((S)-2-fluoro-4-morpholin-2-yl-phenyl)-amine] | 0.0387 µM
44 | FC(F)(F)c1cnc(Nc2ccc([C@@H]3CNCCO3)cc2)cn1 [Example 201, (R)—N-(4-(Morpholin-2-yl)phenyl)-5-(trffluoromethyl)pyrazin-2-amine] | 0.0626 µM
45 | c1ccc(-n2ccc(Nc3ccc([C@@H]4CNCCO4)cc3)n2)cc1 [Example 164, ((R)-4-Morpholin-2-yl-phenyl)-(1-phenyl-1H-pyrazol-3-yl)-amine] | 0.025 µM
46 | COCCOc1cnc(Nc2ccc([C@H]3CNCCO3)cc2F)nc1 [Example 152, ((S)-2-Fluoro-4-morpholin-2-yl-phenyl)-[5-(2-methoxy-ethoxy)-pyrimidin-2-yl]-amine] | 0.268 µM
47 | CCc1cnc(Nc2ccc(C3CNCCO3)cc2C)nc1 (racemic) [Example 88, (RS)-5-Ethyl-N-(2-methyl-4-(morpholin-2-yl)phenyl)pyrimidin-2-amine] | 0.0874 µM
48 | Cc1cc(C2CNCCO2)ccc1Nc1ncc(Br)cn1 (racemic) [Example 89, (RS)-5-Bromo-N-(2-methyl-4-(morpholin-2-yl)phenyl)pyrimidin-2-amine] | 0.177 µM
49 | Fc1cc([C@H]2CNCCO2)ccc1Nc1ncc(C(F)(F)F)cn1 [Example 135, ((S)-2-Fluoro-4-morpholin-2-yl-phenyl)-(5-trifluoromethyl-pyrimidin-2-yl)-amine] | 0.0198 µM

Other lines, results leading:

Row | Ki | SMILES
50 | 0.155 µM | CCOc1cnc(Nc2ccc([C@H]3CNCCO3)cc2)nc1 [Example 29, (5-Ethoxy-pyrimidin-2-yl)-((S)-4-morpholin-2-yl-phenyl)-amine]
51 | 0.035 µM | Cc1nc(Nc2ccc([C@H]3CNCCO3)cc2)ncc1C(C)C [Example 73, (5-Isopropyl-4-methyl-pyrimidin-2-yl)-((S)-4-morpholin-2-yl-phenyl)-amine]
52 | 1.1 µM | Clc1ncc(Cl)c(Nc2ccc([C@H]3CNCCO3)cc2)n1 [Example 186, (S)-2,5-Dichloro-N-(4-(morpholin-2-yl)phenyl)pyrimidin-4-amine]
53 | 1.64 µM | N#Cc1ccc(CNc2ccc([C@H]3CNCCO3)cc2)cc1 [Example 23, 4-[((S)-4-Morpholin-2-yl-phenylamino)-methyl]-benzonitrile]
54 | 0.0118 µM | c1ccc2cc(Nc3ccc([C@H]4CNCCO4)cc3)ccc2c1 [Example 44, ((S)-4-Morpholin-2-yl-phenyl)-naphthalen-2-yl-amine]
55 | 0.105 µM | Clc1cnc(Nc2ccc([C@H]3CNCCO3)cc2)nc1 [Example 104, (S)-5-Chloro-N-(4-(morpholin-2-yl)phenyl)pyrimidin-2-amine]
56 | 0.029 µM | Clc1ccc(Nc2ccc(C3CNCCO3)cc2)nc1 (racemic) [Example 5, (RS)-(5-Chloro-pyridin-2-yl)-(4-morpholin-2-yl-phenyl)-amine]
57 | 0.108 µM | c1ccc(CCNc2ccc([C@H]3CNCCO3)cc2)cc1 [Example 13, ((S)-4-Morpholin-2-yl-phenyl)-phenethyl-amine]
58 | 0.01 µM | FC(F)(F)COc1ccnc(Nc2ccc([C@H]3CNCCO3)cc2)n1 [Example 187, ((S)-4-Morpholin-2-yl-phenyl)-[4-(2,2,2-trifluoro-ethoxy)-pyrimidin-2-yl]-amine]
59 | 0.447 µM | Cc1cc(C)nc(Nc2ccc([C@@H]3CNCCO3)cc2)n1 [Example 182, (4,6-Dimethyl-pyrimidin-2-yl)-((R)-4-morpholin-2-yl-phenyl)-amine]
60 | 0.0104 µM | CCc1cnc(Nc2ccc([C@H]3CNCCO3)cc2F)nc1 [Example 117, (5-Ethyl-pyrimidin-2-yl)-((S)-2-fluoro-4-morpholin-2-yl-phenyl)-amine]
61 | 0.0588 µM | FC(F)(F)c1nccc(Nc2ccc([C@@H]3CNCCO3)cc2)n1 [Example 200, (R)—N-(4-(morpholin-2-yl)phenyl)-2-(trifluoromethyl)pyrimidin-4-amine]
62 | 0.149 µM | FC(F)(F)c1ccc(CNc2ccc([C@H]3CNCCO3)cc2)cc1 [Example 24, ((S)-4-Morpholin-2-yl-phenyl)-(4-trifluoromethyl-benzyl)-amine]
63 | 0.28 µM | Clc1nc2ccccc2cc1CNc1ccc([C@H]2CNCCO2)cc1 [Example 51, (S)—N-((2-Chloroquinolin-3-yl)methyl)-4-(morpholin-2-yl)aniline]
64 | 0.0893 µM | Clc1ccc(CNc2ccc(C3CNCCO3)cc2)cc1 (racemic) [Example 9, (RS)-(4-Chloro-benzyl)-(4-morpholin-2-yl-phenyl)-amine]
65 | 3.19 µM | CS(=O)(=O)c1cnc(Nc2ccc([C@H]3CNCCO3)cc2)nc1 [Example 78, (5-Methanesulfonyl-pyrimidin-2-yl)-((S)-4-morpholin-2-yl-phenyl)-amine]
66 | 0.211 µM | Cc1cc(Br)cnc1Nc1ccc([C@H]2CNCCO2)cc1 [Example 56, (S)-5-Bromo-3-methyl-N-(4-(morpholin-2-yl)phenyl)pyridin-2-amine]
